Results: patent US20230137491A1, “PEPTIDES AND USES THEREOF” (SINTICA BIOTECH SOCIETÀ A RESPONSABILITÀ LIMITATA …, priority 2020, published 2023)
Non-standard residues stand in square brackets, D forms with d. methoxy‑PEG 20 kDa = linear 20 kDa methoxy-PEG conjugated through D-Cys sulfur

Key:
[1] = target: T1, CD271 (Homo sapiens, UniProt P08138); test: Immunoprecipitation of melanoma cell lysates with the peptide, blotted against CD271; format: binding; conditions: protein extracts of WM266-4 and 1205Lu melanoma cell lines
T1 construct: total protein lysates of WM266-4 and Lu1205 melanoma cell lines were immunoprecipitated with the peptide conjugated to sepharose beads; endogenous in cells; host or cells: WM266-4 and 1205Lu melanoma cell lines (ATCC)
T1 sequence (P08138 29-427): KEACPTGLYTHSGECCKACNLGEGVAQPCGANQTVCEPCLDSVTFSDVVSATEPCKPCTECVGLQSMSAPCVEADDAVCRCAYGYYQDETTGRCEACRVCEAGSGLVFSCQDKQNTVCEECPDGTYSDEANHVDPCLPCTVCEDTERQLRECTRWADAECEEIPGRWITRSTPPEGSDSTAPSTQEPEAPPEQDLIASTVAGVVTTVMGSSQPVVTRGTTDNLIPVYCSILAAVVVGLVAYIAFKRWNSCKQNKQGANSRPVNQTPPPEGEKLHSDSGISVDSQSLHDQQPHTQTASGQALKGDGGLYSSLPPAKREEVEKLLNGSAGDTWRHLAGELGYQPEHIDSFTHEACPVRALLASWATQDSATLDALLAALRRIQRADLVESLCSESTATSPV
Experimental: FIG. 1. […] Protein extracts from two melanoma cell lines were immunoprecipitated with the Pegylated form of the peptide (XYZ) and blotted against CD271. The sepharose beads-protein lysates (without CD271) is used as negative control, while no-immunoprecipitated protein lysate from WM266-4 is used as positive control.
1205Lu and WM266-4 melanoma cell lines were treated with or without XYZ. 24 h later cells were harvested with RIPA buffer (10 mM Tris, pH 8.0; 150 mM NaCl; 1% Nonidet P-40, 0.5% deoxycholate; 0.1% SDS) containing protease inhibitors. Nuclei were removed by centrifugation (11,000 rpm for 3 min). Monoclonal antibody anti-p75NTR (Upstate) was bound to sepharose beads lh at 4° C. under rotation. Then, pre-cleared lysates were conjugated to sepharose beads-antibody complex or to sepharose beads alone as negative control, overnight at 4° C. under rotation. Immunocomplexes were washed with Port Buffer (10 mM Tris-HCl, pH 8.5; 150 mM NaCl; 0.1% Renex 30; 0.01% BSA; 2.5% NaN3) six times and with PT Buffer (10 mM Tris-HCl, pH 8.5; 150 mM NaCl; 0.5% Tween 20; 2.5% NaN3) three times. Samples were eluted with 1× Laemnli sample buffer for […] at 90° C. and Western Blotting for p75NTR was performed.
Immunocomplexes were washed with Port Buffer and with PT Buffer, then eluted with Laemnli sample buffer for 5′ at 90° C. […]

[2] = system: WM266-4 melanoma cell line; test: Cell death analysis by flow cytometry (propidium iodide, sub-G1); format: cell-based, human; conditions: WM266-4, 24 h and 48 h, versus diluent
Experimental: (§1) FIG. 5. […] WM266-4 melanoma cell line was cultured and the rate of apoptosis measured after treatment with the peptide (XYZ) as compared to diluent at different time points by flow cytometry (A) counting % of cells in sub-G1 with propidium iodide staining or (B) counting % of Annexin positive cells staining. Student's t-test was used for comparison of the means
WM266-4 cell line was treated with the peptide (XYZ) or diluent at different time points. After 24 and 48 h, cells were trypsinised and resuspended in hypotonic fluorochrome solution: 50 μg/ml propidium iodide containing 0.1% sodium citrate and 0.5% Triton X-100 (Sigma Aldrich, Milano, Italy). After 15 min, cells were analyzed using an Epics XL flow cytometer (Coulter Electronics Inc., Hialeah, Fla., USA). Apoptosis was detected by evaluating the reduced fluorescence of the DNA-binding dye PI in the apoptotic nuclei.
(§2) In particular, XYZ triggers melanoma apoptosis, a most well-known type of programmed cell death in culture. […] In details, melanoma cell lines, gently were trypsinised and washed once with serum-containing media before incubation with annexin V-FITC or with propidium iodide. 24 h and 48 h later, FITC signal detector or sub G0/G1 peak for annexin or PI staining respectively, were observed by flow cytometry.

[3] = system: WM266-4 melanoma cell line; test: Annexin V staining by flow cytometry; format: cell-based, human; conditions: WM266-4, 24 h and 48 h, versus diluent
Experimental: as §1
WM266-4 cell line was treated with the peptide (XYZ) or diluent at different time points. After 24 and 48 h, cells were trypsinised, collected by centrifugation and resuspended in 500 μL of binding buffer containing annexin V-FITC and propidium iodide (PI). After incubation at room temperature for 5 min in the dark, annexin V-FITC binding was analyzed by flow cytometry using FITC signal detector and PI staining by the phycoerythrin emission signal detector.
as §2

[4] = system: SKmel 28 cell line in zebrafish; test: Zebrafish xenotransplant with SKmel28 cell line; format: in vivo; conditions: SKmel28, embryos with metastasis counted 5 days post injection
Experimental: FIG. 12. […] SKMel28 melanoma cell line was treated with XYZ, DTIC, the peptide in combination with DTIC, or left untreated. They were stained with Vibrant Cell Labelling Solution (red) and injected into the yolk of transparent zebrafish larvae and monitored. The number of embryos with metastasis was counted at 5 days post injection.
Zebrafish handling was performed at the Zebrafish Centre of the University of Padova, Italy, under ethical committee (OPBA) authorization 407/2015-PR. Zebrafish embryos were obtained from natural spawning of albino adults, raised following standard protocols (Westerfield, M et al., 2000) and staged according to Kimmel et al. (1995). […] Zebrafishes were monitored daily and documented from 1 day post injection (dpi) up to 1 week (experimental endpoint). […]
For xenotransplantation, albino embryos were mechanically dechorionated at 2 days post-fertilisation, anesthetized with tricaine 0.16 mg/ml and placed along plastic lanes immersed in 2% methylcellulose/PBS. […] Stained cells were loaded in a glass capillary needle and microinjected into the yolk (about 50 cells/embryo), Xenotransplanted embryos were monitored daily and documented from one day post injection up to one week.

Ac-DMet-DLeu-Gly-DIle-DIle-DAla-Gly-DLys-DAsn-DSer-Gly-DCys-NH2 with a linear 20 kDa methoxy-PEG polymer conjugated to the D-Cys residue through the sulfur atom of the latter (Ac-[dM][dL]G[dI][dI][dA]G[dK][dN][dS]G[dC](methoxy‑PEG 20 kDa)-NH2) [XYZ]
binding to CD271 (immunoprecipitation, blot against CD271) [1]: immunoprecipitate with CD271
rate of apoptosis (propidium iodide, subG1 analysis) [2]: significantly higher rate of apoptosis than diluent alone
rate of apoptosis (Annexin staining) [3]: significantly higher rate of apoptosis than diluent alone
full metastasis in xenotransplanted zebrafish [4]: reduces full metastasis
